Patent US8710056B2, “Pyridazine compounds for controlling invertebrate pests” (BASF SE, priority 2009, dated 2014)

Columns and labels:
Type in all cases: in vivo
[1] = system: Cotton aphid (Aphis gossypii, mixed life stages); assay: Activity against cotton aphid, foliar spray on infested cotton plants; settings: 120 h, determined after 5 days, read-out: mortality in comparison with untreated controls
Method: II.1 Activity Against Cotton Aphid (Aphis gossypii, Mixed Life Stages)
(§1) The active compounds were formulated in cyclohexanone as a 10,0000 ppm solution supplied in 1.3 ml ABgene® tubes. These tubes were inserted into an automated electrostatic sprayer equipped with an atomizing nozzle and they served as stock solutions for which lower dilutions were made in 50% acetone:50% water (v/v). A nonionic surfactant (Kinetic®) was included in the solution at a volume of 0.01% (v/v).
Cotton plants at the cotyledon stage were infested with aphids prior to treatment by placing a heavily infested leaf from the main aphid colony on top of each cotyledon. Aphids were allowed to transfer overnight to accomplish an infestation of 80-100 aphids per plant and the host leaf was removed. The infested plants were then sprayed by an automated electrostatic plant sprayer equipped with an atomizing spray nozzle. The plants were dried in the sprayer fume hood, removed from the sprayer, and then maintained in a growth room under fluorescent lighting in a 24-hr photoperiod at 25° C. and 20-40% relative humidity. Aphid mortality on the treated plants, relative to mortality on untreated control plants, was determined after 5 days.

[2] = system: Green peach aphid (Myzus persicae, mixed life stages); assay: Activity against green peach aphid, foliar spray on infested bell pepper plants; settings: 120 h, determined after 5 days, read-out: mortality in comparison with untreated controls
Method: II.2 Activity Against Green Peach Aphid (Myzus persicae, Mixed Life Stages)
as §1
Bell pepper plants at the first true-leaf stage were infested prior to treatment by placing heavily infested leaves from the main colony on top of the treatment plants. Aphids were allowed to transfer overnight to accomplish an infestation of 30-50 aphids per plant and the host leaves were removed. The infested plants were then sprayed by an automated electrostatic plant sprayer equipped with an atomizing spray nozzle. The plants were dried in the sprayer fume hood, removed, and then maintained in a growth room under fluorescent lighting in a 24-hr photoperiod at 25° C. and 20-40% relative humidity. Aphid mortality on the treated plants, relative to mortality on untreated control plants, was determined after 5 days.

[3] = system: Cowpea aphid (Aphis craccivora); assay: Activity against cowpea aphid, spray on potted cowpea plants; settings: spray on colonized cowpea plants, population reduction assessed after 24, 72 and 120 hours, read-out: mortality in comparison with untreated controls
Method: II.3 Activity Against Cowpea Aphid (Aphis craccivora)
The active compounds were formulated in 50:50 (vol:vol) acetone:water. The test solution was prepared at the day of use.
Potted cowpea plants colonized with 100-150 aphids of various stages were sprayed after the pest population had been recorded. Population reduction was assesed after 24, 72, and 120 hours.

[4] = system: Silverleaf whitefly (bemisia argentifolii, adult); assay: Activity against silverleaf whitefly, sprayed cotton plants; settings: 72 h, whitefly adults, assessed 3 days after treatment, read-out: mortality in comparison with untreated controls
Method: II.4 Activity Against Silverleaf Whitefly (bemisia argentifolii, Adult)
as §1
Cotton plants at the cotyledon stage (one plant per pot) were sprayed by an automated electrostatic plant sprayer equipped with an atomizing spray nozzle. The plants were dried in the sprayer fume hood and then removed from the sprayer. Each pot was placed into a plastic cup and 10 to 12 whitefly adults (approximately 3-5 days old) were introduced. The insects were collected using an aspirator and 0.6 cm, nontoxic Tygon® tubing (R-3603) connected to a barrier pipette tip. The tip, containing the collected insects, was then gently inserted into the soil containing the treated plant, allowing insects to crawl out of the tip to reach the foliage for feeding. Cups were covered with a reusable screened lid (150-micron mesh polyester screen PeCap from Tetko, Inc.). […] Mortality was assessed 3 days after treatment, compared to untreated control plants.

[5] = system: Vetch aphid (Megoura viciae); assay: Activity against vetch aphid, bean leaf disks in microtiterplates; settings: foliar, 144 h, test solution 2500 mg/L, 2.5 μl sprayed on bean leaf disks, 6 days
Method: II.5 Activity Against Vetch Aphid (Megoura viciae)
The active compounds were formulated in 1:3 (vol:vol) DMSO: water with different concentrations of formulated compounds.
Bean leaf disks were placed into microtiterplates filled with 0.8% agar-agar and 2.5 ppm OPUS™. The leaf disks were sprayed with 2.5 μl of the test solution and 5 to 8 adult aphids were placed into the microtiterplates which were then closed and kept at 23±1° C. and 50±5% relative humidity under fluorescent light for 6 days. Mortality was assessed on the basis of vital, reproduced aphids. Aphid mortality and fecundity was then visually assessed.

[6] = system: Green peach aphid (Myzus persicae); assay: Activity against green peach aphid through systemic means, artificial diet in 96-well microtiter plates; settings: 72 h, read-out: mortality in comparison with untreated controls
Text: II.6 Activity Against Green Peach Aphid (Myzus persicae)
For evaluating control of green peach aphid (Myzus persicae) through systemic means the test unit consisted of 96-well-microtiter plates containing liquid artificial diet under an artificial membrane.
The compounds were formulated using a solution containing 75% v/v water and 25% v/v DMSO. Different concentrations of formulated compounds were pipetted into the aphid diet, using a custom built pipetter, at two replications. After application, 5 to 8 adult aphids were placed on the artificial membrane inside the microtiter plate wells. The aphids were then allowed to suck on the treated aphid diet and incubated at about 23+1° C. and about 50+5% relative humidity for 3 days. Aphid mortality and fecundity was then visually assessed.

[7] = system: Vanda/Orchid thrips (Dichromothrips corbetti); assay: Activity against Vanda/orchid thrips, petal dip; settings: orchid petals dipped, recorded after 72 hours, read-out: mortality in comparison with untreated controls
Method: II.7 Activity Against Vanda/Orchid Thrips (Dichromothrips corbetti)
The active compounds were formulated as a 50:50 (vol:vol) acetone:water solution. Surfactant (Alkamuls EL 620) was added at the rate of 0.1% (vol/vol). Vanda orchids petals were cleaned, washed and air dried prior to spraying. Petals were dipped into the test solution for 3 seconds, air dried, placed inside a resealable plastic and inoculated with 20 adults. The treated petals were kept inside the holding room at 28-29° C. and relative humidity of 50-60%. Percent mortality was recorded after 72 hours.

[8] = system: Green peach aphids (Myzus persicae); assay: Hydroponic test against green peach aphids, bare-root green pepper plants; settings: bare roots immersed 24 hours, assay 3 days, read-out: mortality in comparison with untreated controls
Method: II.7.1 Activity in the Hydroponic Tests Against Green Peach Aphids (Myzus persicae)
(§2) Green pepper plants (Capsicum annuum L., variety ‘California Wonder’) are grown in the greenhouse from seed to the second true leaf stage (BBCH 12) in Scott's MetroMix® 360 (1-2 plants per 2¼″ square pot). Cotyledon leaves are removed and roots are rinsed in tap water until free of soil. The roots are kept moist under a layer of wet paper toweling until all plants have been prepared.
(§3) A 3,400 ppm stock solution is prepared of each test compound using reagent grade acetone as the solvent. Subsequent dilutions of 100 and 10 ppm are prepared from this stock with final dilutions in deionized water in 100 ml amber glass bottles. One bare root plant is placed in each bottle using a foam plug section to centrally secure the stem in the bottleneck. The bare roots are fully-immersed in the test suspensions. Host plants are placed in a plant growth room under continuous GroLux® fluorescent lighting (40W), for 24 hours at 25±2° C. and 20-40% RH.
(§4) After exposure of the bare roots to the test suspensions, pieces of pepper plants infested with green peach aphid (Myzus persicae) are placed on top of the test foliage. Insects are allowed to transfer from the host leaves to accomplish an infestation of 40-50 insects per plant. […] Phytotoxic responses of the host plants are also recorded at this time.

[9] = system: Cotton aphids (Aphis gossypii); assay: Hydroponic test against cotton aphids, bare-root cotton plants; settings: bare roots immersed 24 hours, assay 3 days, read-out: mortality in comparison with untreated controls
Method: II.8 Activity in the Hydroponic Tests against Cotton Aphids (Aphis gossypii)
as §2, with “Cotton” for “Green pepper”, “(Gossypium hirsutum,” for “(Capsicum annuum L.,”, “‘Sure Grow 747’)” for “‘California Wonder’)”, “Metro-Mix®” for “MetroMix®”
as §3
as §4, with “cotton” for “pepper”, “cotton aphids (Aphis gossypii)” for “green peach aphid (Myzus persicae)”

| SMILES | mortality at 300 ppm [1] | mortality at 300 ppm [2] | mortality at 300 ppm [3] | mortality at 300 ppm [4] | mortality at 2500 µg/mL [5] | mortality at 2500 ppm [6] | mortality at 500 ppm [7] | mortality at 100 ppm [8] | mortality at 100 ppm [9] |
| --- | --- | --- | --- | --- | --- | --- | --- | --- | --- |
| CN(C(=O)c1conc1C1CC1)c1ccnnc1 [Compound 5, 3-Cyclopropyl-isoxazole-4-carboxylic acid methyl-pyridazin-4-yl-amide] | ≥ 75% | ≥ 75% | ≥ 90% | ≥ 75% | ≥ 90% | 100% | ≥ 50% | ≥ 75% | ≥ 75% |
| O=C(Nc1ccnnc1)c1conc1C1CC1 [Compound 4, 3-Cyclopropyl-isoxazole-4-carboxylic acid pyridazin-4-ylamide] | ≥ 75% | ≥ 75% | ≥ 90% | ≥ 75% | ≥ 90% | 100% | ≥ 50% | ≥ 75% | ≥ 75% |
